According to PMC6749236, “Synthesis of Novel 2-(Het)arylpyrrolidine Derivatives and Evaluation of Their Anticancer and Anti-Biofilm Activity” (Molecules, 2019):
pIC50: −log10 of the molar value. Several values for one entry are separate records, joined by “and”; a condition that tells them apart may be missing. Identical values can stand only once. Marks after values point to notes of the source that are not given here.

Legend:
[1] = system: Chang liver cell line; assay: Cytotoxicity assay (Cytell Cell Imaging), normal cell line; type: cell-based; conditions: Homo sapiens, read-out: IC50 Normal Cell Line Chang Liver
[2] = system: M-Hela; assay: Cytotoxicity assay (Cytell Cell Imaging, DAPI/propidium iodide), cancer cell line; type: cell-based; conditions: Homo sapiens, M-HeLa, read-out: IC50 Cancer Cell Line M-Hela
[3] = system: Acinetobacter calcoaceticus VKPM B-10353; assay: Biofilm formation, crystal violet assay; type: cell-based; conditions: A. calcoaceticus VKPM B-10353; for Biofilm Formation: control = 100%; for Biofilm formation with respect to control, over the investigated concentrations: 1 × 10^−9–1 × 10^−5 M
Protocol: (§1) Bacterial strains and cultivation conditions. For the detection of biofilms, formation strains Vibrio aquamarinus DSM 26054 and Acinetobacter calcoaceticus VKPM B-10353 were used. These strains form biofilms, making them useful for studying biofilms.
(§2) The bacterial strains Acinetobacter calcoaceticus VKPM B-10353, E. coli MG1655 (pRecA-lux), and E. coli MG1655 (pSoxS-lux) were cultivated in Luria–Bertani (LB) medium under constant shaking to early exponential phase at 37 °C. Cells were used immediately for stress induction tests. One hundred micrograms of ampicillin per milliliter were added into LB medium at cultivation of E. coli MG1655 (pRecA-lux) and E. coli MG1655 (pSoxS-lux). Strain V. aquamarinus DSM 26054 was grown in LB medium supplemented with 3% NaCl.
(§3) The test compounds were dissolved in DMSO to the concentration of 1 × 10^−2 M. Then, they were diluted with ethanol. The control solutions were analogous dilutions of DMSO in ethanol. The tested compounds were also compared with the standard antibiotic azithromycin. Azithromycin was dissolved in DMSO to the concentration of 5 × 10^−3 M and then diluted with deionized water.
(§4) Test system for evaluation of biofilms production. To quantify the formation of biofilms, the crystal violet assay was used, with some modifications. The necessary concentrations of the test compounds were prepared as described above.
(§5) V. aquamarinus DSM 26054 was cultivated for 24 h in LB medium supplemented with 3% NaCl in the Innova 40R shaker incubator (New Brunswick Scientific, USA) at 25 °C and 200 rpm. A. calcoaceticus VKPM B-10353 was cultivated for 24 h in LB medium in the Innova 40R shaker incubator (New Brunswick Scientific, Enfield, CT, USA) at 30 °C and 200 rpm. Then, the suspensions of the daily culture of V. aquamarinus DSM 26054 and A. calcoaceticus VKPM B-10353 were diluted with LB medium supplemented with 3% NaCl to the density of 1 × 10^8 cells/mL.
(§6) The resulting suspension (180 μL) was added to the wells of a polystyrene microplate (Nuova Aptaca, Canelli, Italy). To some of the wells, 20 μL of the test substances at various concentrations were added. Since solvents used could also influence the biofilm formation, 20 μL of the appropriate solvent was added to the other part of the wells at same dilutions (control). Six replicates were done for each treatment and control. The microplate was covered with a lid and wrapped with Parafilm (Bemis Company, Inc., Oshkosh, WI, USA).
(§7) After incubation at 25 °C for 72 h, biofilms were stained. The contents in the wells were removed by means of a dispenser. The wells were then carefully washed three times with 250 μL of sterile saline. The microplates were shaken to remove all non-adherent bacteria. Biofilms were fixed with 200 μL of 96% ethanol for 15 min. After the microplates had dried in air, 200 μL of 0.5% crystal violet was introduced into the wells. After 10 min, the dye was removed. The excess dye was removed by washing with water three times. After the microplates were air-dried, the dye in the wells bound to biofilms was dissolved with 200 μL of 96% ethanol. The extraction level (absorption) of crystal violet by ethanol was measured after 60 minutes at a wavelength of 570 nm using a FLUOstar Omega microplate reader (BMG Labtech, Offenburg, Germany) in optical density units (OD570). The intensity of biofilm formation directly corresponds to the intensity of staining of the contents of the wells with the dye. Biofilm formation was determined by the difference between the mean OD readings obtained in the presence of compounds and the control.
(§8) Each experiment was performed in triplicate. The values were expressed as mean + SD. Student’s t-test was used to compare these values. Differences were considered statistically significant at p < 0.05.

[4] = system: Vibrio aquamarinus DSM 26054; assay: Biofilm formation, crystal violet assay; type: cell-based; conditions: V. aquamarinus DSM 26054, control = 100%
Protocol: as §1, §2, §3, §4, §5, §6, §7, §8

[5] = system: Escherichia coli MG1655 (pRecA-lux); assay: Genotoxicity, bacterial lux-biosensor; type: cell-based
From the text: (§9) E. coli MG1655 (pRecA-lux) was used for the evaluation of the genotoxicity of the synthesized compounds. The biosensor with the PrecA promotor fixes the presence of the factors causing damage of DNA in a cell. The biosensor E. coli MG1655 (pSoxS-lux) was used for the evaluation of prooxidant activity. The biosensor with the PsoxS promoter fixes the production of superoxide anion and NO [75]. Bioluminescent strains were obtained by the transformation of E. coli MG1655 by hybrid plasmids pRecA-lux, pSoxS-lux. The gene cassette luxCDABE Photorhabdus luminescens under the control PrecA promoters was used in this biosensor. This plasmid was created on the basis of pBR322 and contained a selective marker of ampicillin resistance (Amp gene). The strains were kindly furnished by Manukhov I.V., Federal State Unitary Enterprise “GosNIIGenetika”).
as §2
(§10) Biosensors assay procedure. The detailed protocol of toxicity testing by means of a bacterial lux-biosensors is described in the article.
(§11) Calculation. The criterion of toxic influence was bioluminescence intensity change of the test object in the researched sample in comparison with the control sample.
(§12) The induction factor (I) was defined as the relation of luminescence intensity of a lux-biosensor suspension containing tested sample (Lc) to the luminescence intensity of a lux-biosensor control suspension (Lk): I = Lc/Lk.
If at significant differences from control induction factor values were ≤2, the detected genotoxic effect was evaluated as “weak”, if they were in the range from 2 to 10 as “medium”, and above 10 as “strong”. All the experiments were carried out three times independently.
(§13) Difference reliability of bioluminescence in experiment from control value was estimated by t-criterion with the help of Excel software. The conclusions about sample toxicity were made at p < 0.05.

[6] = system: E. coli MG1655 (pSoxS-lux); assay: Prooxidant activity, bacterial lux-biosensor; type: cell-based, Escherichia coli
From the text: as §9, §2, §10, §11, §12, §13

[7] = system: P388 murine leukemia; assay: In vivo anti-tumor activity, i.p. implanted leukemia; set-up: species or system BDF1 hybrid male mice; conditions: for ILS / MST ± SD: P388; for Survival: day 60
Protocol: Animals. In vivo experiments were performed using the BDF1 hybrid male mice of 22–24 g weight. The experimental animals were caged in a standard vivarium in 12 h light conditions with free access to food and water. All manipulations with the animals were performed in accordance with the solutions of the Commission on Bioethics of the Institute of Problems of Chemical Physics, Russian Academy of Sciences (IPCP RAS).
Anti-tumor activity. The tumors were transplanted intraperitoneally (i.p.) in accordance with a standard procedure inoculum: 10^6 tumor cells in isotonic solution of NaCl, V = 0.2 cm^3 (leukemia P388). Original compounds were injected intraperitoneally as aqueous solution. Doses from 18 to 83 mg/kg/day and the mode of administration on days 1, 5, and 9 after transplantation were used. In each experiment, a single group of tumor-bearing animals not injected with the compounds served as the control group. Each group consisted of six mice. The animals were observed daily for survival for a minimum of 60 days. The efficacy of the therapy against leukemia (defined as increase in lifespan—ILS) was assessed as the percentage of the median survival time (MST) of the treated group (t) to that of the control group (c): ILS(%) = (MSTt/MSTc) × 100.
Statistics. The experiments were carried out in triplicate. The data are presented in the form X ± SD (mean ± standard deviation). The significance of the differences between the groups was assessed using Student’s t-test. Values of p < 0.05 were considered statistically significant. The data were processed statistically using GraphPad Prism.

[8] = 18 mg/kg/day i.p., days 1, 5, 9
[9] = 26 mg/kg/day i.p., days 1, 5, 9
[10] = 40 mg/kg/day i.p., days 1, 5, 9
[11] = 55 mg/kg/day i.p., days 1, 5, 9
[12] = 83 mg/kg/day i.p., days 1, 5, 9

## CCCCCCNC(=O)N1CCCC1c1c(O)c2ccccc2oc1=O (centres unmarked) [8f, N-Hexyl-2-(4-hydroxy-2-oxo-2H-chromen-3-yl)pyrrolidine-1-carboxamide]
[1]
  pIC50: < 4.00
[2]
  pIC50: < 4.00
other
  melting point: 124 to 125 °C

## O=[N+]([O-])c1c(Cl)cc2c(no[n+]2[O-])c1Nc1cccc(O)c1 [compound 4, 6-Chloro-4-((3-hydroxyphenyl)amino)-5-nitrobenzo[c][1,2,5]oxadiazole 1-oxide]
[3]; 1 × 10^−5 M
  Biofilm Formation: 149.22* %
[3]; 1 × 10^−6 M
  Biofilm Formation: 97.99%
[3]; 1 × 10^−7 M
  Biofilm Formation: 78.63 * %
[3]; 1 × 10^−8 M
  Biofilm Formation: 62.12 * %
[3]; 1 × 10^−9 M
  Biofilm Formation: 86.67 * %
[3]
  Biofilm formation with respect to control, over the investigated concentrations: both suppressing and stimulating
[4]; 1 × 10^−5 M
  Biofilm Formation: 96.57%
[4]; 1 × 10^−6 M
  Biofilm Formation: 43.56 * %
[4]; 1 × 10^−7 M
  Biofilm Formation: 11.34 * %
[4]; 1 × 10^−8 M
  Biofilm Formation: 9.31 * %
[4]; 1 × 10^−9 M
  Biofilm Formation: 66.58%
[5]; 10^−9–10^−5 M, with and without S9
  DNA-damaging property, in words: do not belong to the class of DNA-damaging substances
[5]; with metabolic activation (+S9), 10^−5 M
  Genotoxicity (induction factor, I): 1.11 ± 0.01
[5]; with metabolic activation (+S9), 10^−6 M
  Genotoxicity (induction factor, I): 1.28 ± 0.04
[5]; with metabolic activation (+S9), 10^−7 M
  Genotoxicity (induction factor, I): 1.18 ± 0.01
[5]; with metabolic activation (+S9), 10^−8 M
  Genotoxicity (induction factor, I): 1.11 ± 0.02
[5]; with metabolic activation (+S9), 10^−9 M
  Genotoxicity (induction factor, I): 1.19 ± 0.01
[5]; without metabolic activation (-S9), 10^−5 M
  Genotoxicity (induction factor, I): 1.10 ± 0.00
[5]; without metabolic activation (-S9), 10^−6 M
  Genotoxicity (induction factor, I): 1.27 ± 0.01
[5]; without metabolic activation (-S9), 10^−7 M
  Genotoxicity (induction factor, I): 1.14 ± 0.02
[5]; without metabolic activation (-S9), 10^−8 M
  Genotoxicity (induction factor, I): 1.27 ± 0.07
[5]; without metabolic activation (-S9), 10^−9 M
  Genotoxicity (induction factor, I): 1.21 ± 0.04
[6]; 10^−5 M
  Prooxidant activity (induction factor): 1.64 ± 0.04
[6]; 10^−6 M
  Prooxidant activity (induction factor): 1.54 ± 0.07
[6]; 10^−7 M
  Prooxidant activity (induction factor): 1.74 ± 0.14
[6]; 10^−8 M
  Prooxidant activity (induction factor): 2.08 ± 0.05
[6]; 10^−9 M
  Prooxidant activity (induction factor): 1.85 ± 0.10
[6]; 10^−9–10^−8 M and 10^−7–10^−5 M
  effect of superoxide-anion radical or NO level increase, in words: weak effect

## Cc1cc(O)c(C2CCCN2C(=O)Nc2ccc(Br)cc2)c(=O)o1 (centres unmarked) [7d, N-(4-Bromophenyl)-2-(4-hydroxy-6-methyl-2-oxo-2H-pyran-3-yl)pyrrolidine-1-carboxamide]
[1]
  pIC50: < 4.00
[2]
  pIC50: < 4.00

## CN(C)CCNC(=O)N1CCCC1c1c(O)c2ccccc2oc1=O.O=C(O)C(F)(F)F (centres unmarked) [8h, 2-(2-(4-Hydroxy-2-oxo-2H-chromen-3-yl)pyrrolidine-1-carboxamido)-N,N-dimethylethan-1-aminium 2,2,2-trifluoroacetate]
[7]; [8]
  ILS: 93%
  MST ± SD: 19.3 ± 8.1 days
[7]; 18 mg/kg/day
  Survival: 17%
[7]; [9]
  ILS: 107%
  MST ± SD: 20.7 ± 8.0 days
[7]; 26 mg/kg/day
  Survival: 17%
[7]; [10]
  ILS: 32%
  MST ± SD: 13.2 ± 1.6 days
[7]; 40 mg/kg/day
  Survival: 0%
[7]; [11]
  ILS: 98%
  MST ± SD: 19.8 ± 8.1 days
[7]; 55 mg/kg/day
  Survival: 17%
[7]; [12]
  ILS: 162%
  MST ± SD: 26.2 ± 10.7 days
[7]; 83 mg/kg/day
  Survival: 33%
[7]; P388, dose range 18–83 mg/kg/day i.p., days 1, 5, 9
  antitumor (anti-leukemic) activity, in words: pronounced anti-leukemic activity
[1]
  pIC50: < 4.00
[2]
  pIC50: < 4.00

## CC[C@H]1OC(=O)[C@H](C)[C@@H](O[C@H]2C[C@@](C)(OC)[C@@H](O)[C@H](C)O2)[C@H](C)[C@@H](O[C@@H]2O[C@H](C)C[C@H](N(C)C)[C@H]2O)[C@](C)(O)C[C@@H](C)CN(C)[C@H](C)[C@@H](O)[C@]1(C)O [Azithromycin, reference compound]
[3]; 1 × 10^−5 M
  Biofilm Formation: 101.79%
[3]; 1 × 10^−6 M
  Biofilm Formation: 106.07%
[3]; 1 × 10^−7 M
  Biofilm Formation: 105.71%
[3]; 1 × 10^−8 M
  Biofilm Formation: 96.07%
[3]; 1 × 10^−9 M
  Biofilm Formation: 95.00%
[3]
  Biofilm formation with respect to control, over the investigated concentrations: not detected
[4]; 1 × 10^−5 M
  Biofilm Formation: 81.5% and 81.50 * %
[4]; 1 × 10^−6 M
  Biofilm Formation: 103.80%
[4]; 1 × 10^−7 M
  Biofilm Formation: 99.39%
[4]; 1 × 10^−8 M
  Biofilm Formation: 102.43%
[4]; 1 × 10^−9 M
  Biofilm Formation: 103.42%
